Consider 54 compounds from BindingDB's records for doi:10.7270/Q2PR7TCX (The Scripps Research Institute Molecular Screening Center, 2007).

What is called pIC50 is the negative decadic logarithm of the IC50, by convention in mol/L.

SMILES strings stand for the structures. pIC50: −log10 of the molar value. Counter-ions that a name gives are not always drawn.

Steroidogenic factor 1, sequence (Q13285 whole entry, the tested form may be a part): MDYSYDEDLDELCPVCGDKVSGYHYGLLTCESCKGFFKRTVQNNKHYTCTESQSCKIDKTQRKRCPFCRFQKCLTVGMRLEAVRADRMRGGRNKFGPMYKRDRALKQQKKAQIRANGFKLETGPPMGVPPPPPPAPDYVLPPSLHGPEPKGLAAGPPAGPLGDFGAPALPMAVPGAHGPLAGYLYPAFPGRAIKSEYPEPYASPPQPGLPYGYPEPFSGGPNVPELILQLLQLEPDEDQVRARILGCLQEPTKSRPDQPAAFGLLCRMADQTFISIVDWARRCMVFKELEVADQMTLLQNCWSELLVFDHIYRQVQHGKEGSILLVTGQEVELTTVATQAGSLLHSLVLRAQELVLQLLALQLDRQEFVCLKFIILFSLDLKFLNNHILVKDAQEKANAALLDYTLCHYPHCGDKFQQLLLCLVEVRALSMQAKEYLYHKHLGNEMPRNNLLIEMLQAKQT

The first test addresses Steroidogenic factor 1 (Homo sapiens, UniProt Q13285). Nature of the test: SF-1 inhibitors in Gal4 reporter counter-screen, dose response, counter-screen for RORA inhibitor project, cell-based, CHO-K1, Gal4-SF-1 LBD, luciferase luminescence (AID 611).
Conditions: not given
A general note: Counterscreens check selectivity or assay interference.
`O=C(Nc1nc2ccccc2[nH]1)c1ccccc1F` [N-1,3-dihydro-2H-benzimidazol-2-ylidene-2-fluorobenzamide]: the pIC50 is 5.72.
The same measure, in the same setting: the value for `Cn1nc(C(C)(C)C)cc1C(=O)NCc1ccc(N2CCCC2=O)cc1` [5-tert-Butyl-2-methyl-2H-pyrazole-3-carboxylic acid 4-(2-oxo-pyrrolidin-1-yl)-benzylamide] was 5.50; that for `NCCCCCc1nnc(SCc2ccccc2Cl)o1` [5-[5-[(2-chlorobenzyl)thio]-1,3,4-oxadiazol-2-yl]pentylamine;hydrochloride] was less than 4.00.
The same measure, in the same setting: with `Nc1ccc(-c2nc3c(Cl)cc(N)cc3[nH]2)cc1` [MLS000034140] the figure was 5.26; with `CCOc1ccc(-c2nc(CSCC(=O)NCCN3CCOCC3)c(C)o2)cc1` [2-({[2-(4-ethoxyphenyl)-5-methyl-1,3-oxazol-4-yl]methyl}thio)-N-(2-morpholin-4-ylethyl)acetamide], 5.40.
Still for that read-out and setting: the value for `CCOc1ccc(-c2cc(CCCC(=O)NCCCOC)no2)cc1` [4-[5-(4-ethoxyphenyl)-1,2-oxazol-3-yl]-N-(3-methoxypropyl)butanamide] was 5.58; that for `Cc1cnc(NC(=O)COc2ccccc2Cl)s1` [2-(2-chloranylphenoxy)-N-(5-methyl-1,3-thiazol-2-yl)ethanamide] was 5.25; that for `Cn1c(-c2ccco2)nc2cc3ccccc3cc21` [2-(2-furanyl)-3-methylbenzo[f]benzimidazole] was less than 5.44.
On to `CS(=O)(=O)c1nc(-c2cccs2)cc(C(F)(F)F)n1` [MLS000044645], for which the pIC50 is 5.19.
Still for that read-out and setting: the value for `Oc1c(CN2CCCCC2)cc(COCc2ccccc2)c2cccnc12` [5-(benzoxymethyl)-7-(piperidinomethyl)quinolin-8-ol] was 5.12; that for `COc1ccc(C=Nn2nnc3ccccc32)cc1` [MLS000043825] was 5.40; that for `CCOC(=O)C1CCN(c2ncnc3c2cnn3-c2ccc(Cl)cc2)CC1` [1-[1-(4-chlorophenyl)-4-pyrazolo[3,4-d]pyrimidinyl]-4-piperidinecarboxylic acid ethyl ester] was 5.24.
The same measure, in the same setting: with `O=S(=O)(c1ccccc1)N1CCN(c2cc(-c3ccccc3)nc3ncnn23)CC1` [5-phenyl-7-[4-(phenylsulfonyl)piperazin-1-yl]-[1,2,4]triazolo[1,5-a]pyrimidine] the figure was 5.05.
On the same count and under the same terms, the value for `CCOC(=O)CS(=O)(=O)c1nc(-c2ccc(F)cc2)cc(C(F)(F)F)n1` [2-[4-(4-fluorophenyl)-6-(trifluoromethyl)pyrimidin-2-yl]sulfonylacetic acid ethyl ester] was 5.05.
`COc1ccc(-c2noc(CCCC(=O)O)n2)cc1` [4-[3-(4-methoxyphenyl)-1,2,4-oxadiazol-5-yl]butanoic acid] had a pIC50 of 5.56.
Compound `Cc1cc(C=Nn2cnnc2)c(C)n1-c1ccc(OCc2ccc(F)cc2)cc1` [MLS000112167] had a pIC50 of 5.47.
The same measure, in the same setting: the value for `Cc1ccc(Nc2cc(C)nn2-c2nc(C)cc(O)n2)cc1` [6-methyl-2-[3-methyl-5-(4-methylanilino)pyrazol-1-yl]-1H-pyrimidin-4-one] was 5.38; that for `CC(C)NCC(O)Cn1c2c(c3ccccc31)CCc1c-2cnn1-c1ccccc1` (centres undefined) [1-(3-phenyl-4,5-dihydropyrazolo[4,3-a]carbazol-10-yl)-3-(propan-2-ylamino)-2-propanol] was 5.06; that for `Cc1nnc(Sc2nc(Sc3nnc(C)s3)nc(N3CCN(C)CC3)n2)s1` [2-(4-Methyl-piperazin-1-yl)-4,6-bis-(5-methyl-[1,3,4]thiadiazol-2-ylsulfanyl)-[1,3,5]triazine] was 5.45.
Still for that read-out and setting: the value for `Cn1ncnc2c(=O)n(C)c(=O)nc1-2` was 6.20.
On the same count and under the same terms, with `COc1ccc(C(=O)Nn2c(SCC(=O)NCC3CCCO3)nc3ccccc3c2=O)cc1` (centres undefined) [4-methoxy-N-[4-oxidanylidene-2-[2-oxidanylidene-2-(oxolan-2-ylmethylamino)ethyl]sulfanyl-quinazolin-3-yl]benzamide] the figure was 5.35; with `Cc1ccsc1C(=O)OCC(=O)c1cc(C)n(CC2CCCO2)c1C` (centres undefined) [3-methyl-2-thiophenecarboxylic acid [2-[2,5-dimethyl-1-(2-oxolanylmethyl)-3-pyrrolyl]-2-oxoethyl] ester], less than 7.34; with `COc1ccc(OC)c(NC(=O)CSc2nnnn2-c2ccc3c(c2)OCO3)c1` [2-(1-Benzo[1,3]dioxol-5-yl-1H-tetrazol-5-ylsulfanyl)-N-(2,5-dimethoxy-phenyl)-acetamide], 5.57.
As to `Cc1ccc(-c2csc3ncnc(Sc4nnc(CN5CCCCCC5=O)o4)c23)cc1` [1-[[5-[5-(4-methylphenyl)thieno[2,3-d]pyrimidin-4-yl]sulfanyl-1,3,4-oxadiazol-2-yl]methyl]azepan-2-one], the pIC50 was 5.15.
For `COc1cc(OC)cc(-c2cc3nc(C)c(CCC(=O)O)c(C)n3n2)c1` [3-[2-(3,5-dimethoxyphenyl)-5,7-dimethyl-6-pyrazolo[1,5-a]pyrimidinyl]propanoic acid], the pIC50 was 6.13.
`CN=c1scc(C)n1N=Cc1ccc(O)cc1O` [(4E)-4-[[(4-methyl-2-methylimino-1,3-thiazol-3-yl)amino]methylidene]-3-oxidanyl-cyclohexa-2,5-dien-1-one]: the pIC50 was 5.71.
As for `COc1cccc(N2CCN(c3ncnc4c3[nH]c3ccc(F)cc34)CC2C)c1` (centres undefined) [8-fluoranyl-4-[4-(3-methoxyphenyl)-3-methyl-piperazin-1-yl]-5H-pyrimido[5,4-b]indole], the pIC50 was 5.84.
Still for that read-out and setting: the value for `O=C(Nc1nc2ccccc2[nH]1)c1ccc(F)cc1` [N-1,3-dihydro-2H-benzimidazol-2-ylidene-4-fluorobenzamide] was less than 4.96; that for `O=S(=O)(NCc1ccncc1)c1ccc(Br)s1` [5-bromanyl-N-(pyridin-4-ylmethyl)thiophene-2-sulfonamide] was 5.43; that for `Clc1ccc(-c2nnc(NC3=NCCCCC3)o2)cc1` was less than 5.44.
Same read-out and setting: with `CN(C)c1nc(N)nc(CSc2nnnn2-c2cccc3ccccc23)n1` [2-N,2-N-dimethyl-6-[(1-naphthalen-1-yltetrazol-5-yl)sulfanylmethyl]-1,3,5-triazine-2,4-diamine] the figure was less than 4.00.
Compound `Cc1ccc(-c2nnc(Nc3ccccc3)o2)cc1` [5-(4-methylphenyl)-N-phenyl-1,3,4-oxadiazol-2-amine] had a pIC50 of less than 5.44.
On the same count and under the same terms, with `O=C(CSc1nnnn1C1CC2CCC1C2)Nc1ccnc2ccccc12` (centres undefined) [2-[(1-bicyclo[2.2.1]hept-2-yl-1H-tetrazol-5-yl)thio]-N-4-quinolinylacetamide] the figure was 6.35; with `CCn1nc(-c2cccs2)nc2c(=O)n(C)c(=O)nc1-2` [1-ethyl-6-methyl-3-thiophen-2-yl-pyrimido[5,4-e][1,2,4]triazine-5,7-dione], 5.66.
Same read-out and setting: with `C[C@H]1CCCC=CC2C[C@H](O)CC2[C@H](O)C=CC(=O)O1` (stereo partly drawn) [(7S,12R,15S)-12,15-dihydroxy-7-methyl-8-oxabicyclo[11.3.0]hexadeca-2,10-dien-9-one] the figure was 5.05.
On the same count and under the same terms, the value for `COc1ccc(OCc2cccc(C(=O)O)c2)cc1` [3-[(4-methoxyphenoxy)methyl]benzoic acid] was 6.43.
Regarding `CCOc1ccc(-c2cc(CCCC(=O)NCc3ccco3)no2)cc1` [4-[5-(4-ethoxyphenyl)-1,2-oxazol-3-yl]-N-(furan-2-ylmethyl)butanamide], the pIC50 is less than 4.96.
Regarding `COc1ccc(CCNc2nnc(Sc3nnnn3-c3ccccc3)s2)cc1OC` [MLS000056567], the pIC50 was 5.14.
The compound `CCN1C=CC(=C2C(=O)c3ccccc3C2=O)C=C1` [2-(1-ethyl-4-pyridinylidene)indene-1,3-dione] had a pIC50 of 5.87.
`c1ccc2c(c1)CCN(c1nc3cc4c(cc3s1)OCCO4)C2` [2-(3,4-dihydro-1H-isoquinolin-2-yl)-6,7-dihydro-[1,4]dioxino[2,3-f][1,3]benzothiazole] had a pIC50 of 5.36.
The same measure, in the same setting: with `O=C(NC1=NCCS1)C1COc2ccccc2O1` (centres undefined) [MLS000056062] the figure was 5.33; with `Cc1ccc(-c2nc(-c3ccccn3)no2)cc1` [5-(4-methylphenyl)-3-(2-pyridinyl)-1,2,4-oxadiazole], 5.98.
Same read-out and setting: with `O=NC1c2cc(S(=O)(=O)N3CCCCC3)ccc2-c2ccc(S(=O)(=O)N3CCCCC3)cc21` [2,7-Bis-(piperidine-1-sulfonyl)-fluoren-9-one oxime] the figure was 5.67; with `Nc1nnnn1N=C/C(Br)=C/c1ccccc1` [1-[[(Z)-2-bromanyl-3-phenyl-prop-2-enylidene]amino]-1,2,3,4-tetrazol-5-amine], 5.38.
Regarding `Oc1c(CN2CCOCC2)cc(COCc2ccccc2)c2cccnc12` [5-(benzoxymethyl)-7-(morpholinomethyl)quinolin-8-ol], the negative logarithm of the IC50 (pIC50) was 5.22.
On the same count and under the same terms, the value for `COc1cccc(C(=O)c2sc(NC(C)C)nc2N)c1` [MLS000036929] was 5.28; that for `CCN(CC)c1ccc2cc(NC(=O)CCC(=O)O)c(=O)oc2c1` [4-[[7-(diethylamino)-2-keto-chromen-3-yl]amino]-4-keto-butyric acid] was 5.22.

Staying with this test, now noted: inactive by the depositor's call.
Take `Cc1nc(NC(C)c2ccccc2)c2oc3ccccc3c2n1` (centres undefined) [(2-methylbenzofuro[3,2-d]pyrimidin-4-yl)-(1-phenylethyl)amine]: the pIC50 is 4.64.
The same measure, in the same setting: the value for `CCc1c(C)nc2ncnn2c1NCCc1ccc(OC)cc1` [(6-Ethyl-5-methyl-[1,2,4]triazolo[1,5-a]pyrimidin-7-yl)-[2-(4-methoxy-phenyl)-ethyl]-amine] was 4.93.
`CCOc1cc(C(=O)N2CCc3cc(OC)c(OC)cc3C2)ccc1OC(F)F` [MLS000083614] gave a pIC50 of 4.98.
Compound `Cc1cc(C)nc(SCC(=O)Nc2ccc(N3CCOCC3)c(Cl)c2)n1` [MLS000066583] had a pIC50 of 4.88.
Still for that read-out and setting: the value for `c1ccc(CN2CCN(c3ncnc4c3[nH]c3ccccc34)CC2)cc1` [MLS000078384] was 4.95; that for `COc1cccc(Cn2c(NCc3ccco3)nc3c2c(=O)n(C)c(=O)n3C)c1` [8-(2-furanylmethylamino)-7-[(3-methoxyphenyl)methyl]-1,3-dimethylpurine-2,6-dione] was 4.97.
Consider `CC(=O)c1ccc(N2CCN(c3ccc(C(F)(F)F)cn3)CC2)cc1` [1-[4-[4-[5-(trifluoromethyl)-2-pyridinyl]-1-piperazinyl]phenyl]ethanone], for which the pIC50 is 4.94.
